Format in all cases: cell-based
Assay [1] deals with transglutaminase type 1 promoter linked to a firefly luciferase gene (TG-1 Luc). The experiment in a line: TG-1 Luc reporter assay in transfected human epidermal keratinocytes (HEKs). The protocol: (§1) Human epidermal keratinocytes (HEKs) were isolated and cultured from neonatal foreskins as described (1). The SCC cell line, KJD-1/SV40, were grown in culture as previously reported (2). Growth arrest and differentiation was induced by maintaining confluent cells in culture over 48 hours or by treatment with the protein kinase C (PKC) activator, 12-Otetradecanoyl-phorbol-13-acetate (TPA, 50 ng/ml for 48 hours). Both these treatment regimes induce robust and reproducible differentiation in HEKs but not in SCC cell lines (2, 41-43).
(§2) The human cdc2 promoter construct driving expression of a CAT reporter gene (cdc2-CAT) has been previously described (6). The 2.9kb transglutaminase type 1 promoter linked to a firefly luciferase gene (TG-1 Luc), keratin 10 reporter (K10-Luc), β actin-CAT reporter gene and β actin-luciferase reporter gene have also been previously described (2, 6, 41, 44, 45). β actin-CAT or β actin-Luc reporters were used to normalize for transfection efficiency. The CMV-E2F1 construct was a kind gift from Dr Kristian Helin (16). The CMV-E2F 2-5 constructs were generous gifts from Dr David Livingston (46). The mutant E2F1 constructs, 132E2F1 and 409E2F1, were kindly provided by Dr Joseph Nevins (47). The E2F1 dominant-negative (E2Fd/n) construct codes for amino acids 116-235, spanning for the DNA binding domain and heterodimerisation domain (2).
(§3) Transient transfections of cells were performed in 10 cm^2 well, when cells were either 50% or 100% confluent. Reporter activity was assayed 48 hours post-transfection. Transfection protocols for cultured HEKs using Lipofectamine™ (Invitrogen, Australia) and KJD-1/SV40 cells using Effectene (Qiagen, Australia) have been described previously (2). Transfections were performed in triplicate and repeated at least three times.
(§4) Chloramphenicol acetyltransferase assays (CAT) were performed using a CAT ELISA kit (Roche, Australia) as per manufacturer's instructions. The luciferase assay protocol has been previously reported (6, 41).
(In general: In a reporter assay the amount or activity of a reporter protein is the signal.)

Assay [2] concerns keratin 10 promoter linked to a firefly luciferase gene (K10-Luc). The assay is described as follows: K10-Luc reporter assay in transfected human epidermal keratinocytes (HEKs). How it is done:
as §1, §2, §3, §4

Assay [3] concerns transglutaminase-1 promoter (TG-1 Luc) in KJD-1/SV40 cells. The experiment in a line: TG-1 Luc reporter assay in KJD-1/SV40 squamous cell carcinoma cells. The following applies: proliferating KJD-1/SV40 cells; TPA 50 ng/ml for 48 hours where used; FIG. 6. How it is done: as §1
as §2, with “(2). […]” for “(2).”

The test system of assay [4] is human cdc2 promoter (cdc2-CAT). The experiment in a line: cdc2-CAT reporter assay in transfected human epidermal keratinocytes (HEKs). The note with it: proliferating HEKs co-transfected with expression plasmid. The protocol: as §1
as §2, with “(2). […]” for “(2).”

The mark [5] stands for this setting: differentiated (confluent or TPA-treated) HEKs co-transfected with expression plasmid, assayed 48 hours post-transfection.
Setting [6] is: cultured HEKs induced to differentiate by treatment with TPA (50 ng/ml for 48 hours), FIG. 1.

The results in this text go back to patent US20050245473A1, “Proliferation- and differentiation-modulating agents and uses therefor” (priority 2003, published 2005).

“Also recorded” adds a separate entry of the source.

Take “E2F1: E2F1 transcription factor overexpressed from the CMV-E2F1 expression plasmid”: the “TG-1 Luc activity” value in assay [1] (setting [5]) was “significantly suppressed; also recorded: suppresses”. In assay [2] (setting [5]), the K10-Luc activity entry is on record as “significantly suppressed”.

As for `CCCCCCCCCCCCCC(=O)O[C@@H]1[C@@H](C)[C@@]2(O)[C@@H](C=C(CO)C[C@]3(O)C(=O)C(C)=C[C@@H]23)[C@@H]2C(C)(C)[C@]12OC(C)=O` [TPA, 12-O-tetradecanoylphorbol-13-acetate, reference compound], the entries for the “TG-1 Luc activity” value in assay [3] and in assay [1] (setting [6]) were “no induction” and “increased”, respectively. Further, the K10-Luc activity result in assay [2] (setting [6]) is reported as “increased”.

Turning to “E2Fd/n: E2F1 dominant-negative construct coding for amino acids 116-235, spanning the DNA binding domain and heterodimerisation domain”, the “TG-1 Luc activity” value in assay [3] is “not altered”; in assay [1] (setting [5]), “superinduce/derepress; also recorded: superinduces/derepresses”; in assay [1] (proliferating HEKs transfected with E2Fd/n) it was “not sufficient to induce”. Also, the K10-Luc activity entry in assay [2] (setting [5]) was “superinduces/derepresses”. The “cdc2-CAT reporter activity (proliferation-specific marker)” value in assay [4] was “suppression”.
